In US5157052A, “Method for inhibiting IgE production” (priority 1990, dated 1992):

System: IL-2 receptor
Experiment: Splenocyte cell surface density/distribution (FACS): IL-2 receptor
Assay type: in vivo, mouse (Balb/c female)
Protocol: Another (Group B) is injected with 20 μg (±) methyl 11α,16-dihydroxy-16-methyl-9-oxoprosta-5Z,13E-dien-1-oate as in Example 13. […] A 3 cm incision is made with a scalpel above the left hip, and the spleen is cut free from adjoining tissue and placed in a 100 mn plastic culture dish containing 10 ml PBS. The splenic cells are then made into a suspension, by rubbing the spleens between the rough, frosted ends of microscope slides repeatedly until the only remaining particulate matter is connective tissue. Cells are transferred to a 15 ml conical polystyrene tube and centrifuged in a centrifuge at 1200 rpm for 5 minutes. The supernatant is discarded by aspiration and the cell pellet is resuspended in 10 ml PBS, then centrifuged at 1200 rpm for 5 minutes. The supernatant is aspirated and the cell pellet is resuspended in 15 mM Tris, 140 mM Ammonium Chloride, to lyse red blood cells. After incubating at room temperature for 10 minutes the cell suspension is centrifuged at 1200 rpm for 10 minutes. The supernatant is discarded and the cell pellet is resuspended in 10 ml FACS Buffer (PBS containing 0.1% BSA and 0.1% Sodium Azide). The cell suspension is filtered through sterile glass wool plugged in the top of a pasteur pipet. Cells in the flow through are counted using a hemacytometer, then the cell suspension is centrifuged at 1200 rpm for 5 minutes. The supernatant is discarded and the cell pellet is resuspended in a volume of FACS Buffer that will yield 4×10^7 cells/ml. 10 μl (4×10^5 cells) is added to each well of a 96-well V-bottom plate. 25 μl of diluted monoclonal antibody directed against splenocyte cell surface proteins is added to each well: Major Histocompatability Complex (MHC) Class II (M5114, ATCC, Rockville Md.), MHC Class I (M1/42, ATCC), Anti-IgD (JA12.5, ATCC, Rockville, Md.), Thymocyte (Thy)-1 (JIJ, ATCC), B220 (14.8, ATCC), Kappa light chain (187, ATCC), IL-2 Receptor (7D4, ATCC), Lyt-1 (7.313, ATCC) and CD23 (biotinylated B3B4) and incubated on ice for 30 minutes. 100 μl 10% BSA 0.1% sodium azide is added to each well, then the plates are centrifuged at 1200 rpm for 10 minutes. The liquid is removed by aspiration and the cell pellets are resuspended in 100 μl FACS Buffer, and centrifuged at 1200 rpm for 5 minutes. […] Samples are transferred to individual tubes and 10,000 cells are analyzed. Using the Lysis software (Becton Dickinson, Mountain View, Calif.) the mean channel log fluorescence and percent positive cells are determined for the entire cell population. […]

SMILES: CCCCC(C)(O)C/C=C/[C@H]1[C@H](O)CC(=O)[C@@H]1C/C=C\CCCC(=O)OC (mixture of isomers) [(±) methyl 11α,16-dihydroxy-16-methyl-9-oxoprosta-5Z,13E-dien-1-oate]
- Percentage Positive Cells (anti-IgD stimulated mice, 20 μg days 3 and 4, day 7 (PBS 18.4)): 23 ± 7.7%
- Mean Channel Log Fluorescence (anti-IgD stimulated mice, 20 μg days 3 and 4, day 7 (PBS 101)): 97 ± 1.5
- Percentage Positive Cells (unstimulated mice, 20 μg (PBS 2.4)): 2.7 ± 0.3%
- Mean Channel Log Fluorescence (unstimulated mice, 20 μg (PBS 98)): 96 ± 1
